# Data from ChEMBL document CHEMBL1275533, “In vitro antibacterial activity of vertilmicin and its susceptibility to modifications by the recombinant AAC6'-APH2'' enzyme” (2008).
# Legend:
# Staphylococcus aureus [1] = assay: Bactericidal activity against Staphylococcus aureus ATCC 29213 at >=1 MIC up to 8 hrs by time-kill study; assay type: functional, organism-based
# Enterococcus faecalis = assay: Antibacterial activity against gentamicin-resistant Enterococcus faecalis clinical isolate after 18 hrs by agar dilution method; assay type: functional
# [2] = test system: Acinetobacter calcoaceticus; assay: Antibacterial activity against non-gentamicin-resistant Acinetobacter calcoaceticus clinical isolate after 18 hrs by agar dilution method; assay type: functional
# Klebsiella pneumoniae [3] = assay: Antibacterial activity against Klebsiella pneumoniae isolate 01-21 after 18 hrs by agar dilution method; assay type: functional
# [4] = test system: Escherichia coli BL21(DE3); assay: Phosphorylation activity of AAC(6')-APH(2'') in Escherichia coli BL21(DE3) assessed as oxidation of NADH by pyruvate kinase relative to verdamicin
# Serratia marcescens = assay: Antibacterial activity against non-gentamicin-resistant Serratia marcescens clinical isolate after 18 hrs by agar dilution method; assay type: functional
# Enterobacter cloacae = assay: Antibacterial activity against gentamicin-resistant Enterobacter cloacae clinical isolate assessed as susceptible isolates after 18 hrs by agar dilution method; assay type: functional
# Klebsiella pneumoniae [5] = assay: Antibacterial activity against Klebsiella pneumoniae isolate 01-21 at 1 MIC up to 8 hrs by time-kill study; assay type: functional, organism-based
# [6] = test system: Acinetobacter calcoaceticus; assay: Antibacterial activity against non-gentamicin-resistant Acinetobacter calcoaceticus clinical isolate assessed as susceptible isolates after 18 hrs by agar dilution method; assay type: functional
# Pseudomonas aeruginosa [7] = assay: Antibacterial activity against gentamicin-resistant Pseudomonas aeruginosa clinical isolate after 18 hrs by agar dilution method; assay type: functional
# Proteus mirabilis [8] = assay: Antibacterial activity against non-gentamicin-resistant Proteus mirabilis clinical isolate assessed as susceptible isolates after 18 hrs by agar dilution method; assay type: functional
# Escherichia coli [9] = assay: Antibacterial activity against non-gentamicin-resistant Escherichia coli clinical isolate after 18 hrs by agar dilution method; assay type: functional
# [10] = test system: Escherichia coli BL21(DE3); assay: Ratio of Vmax to Km for AAC(6')-APH(2'') in Escherichia coli BL21(DE3) assessed as production of free pyridine-4-thiolate relative to netilmicin
# Pseudomonas aeruginosa [11] = assay: Antibacterial activity against gentamicin-resistant Pseudomonas aeruginosa clinical isolate assessed as susceptible isolates after 18 hrs by agar dilution method; assay type: functional
# Proteus mirabilis [12] = assay: Antibacterial activity against non-gentamicin-resistant Proteus mirabilis clinical isolate after 18 hrs by agar dilution method; assay type: functional
# [13] = test system: Escherichia coli BL21(DE3); assay: Acetylation activity of AAC(6')-APH(2'') in Escherichia coli BL21(DE3) assessed as production of free pyridine-4-thiolate relative to netilmicin
# Staphylococcus aureus [14] = assay: Antibacterial activity against gentamicin-resistant Staphylococcus aureus clinical isolate assessed as susceptible isolates after 18 hrs by agar dilution method; assay type: functional
# [15] = test system: Staphylococcus epidermidis; assay: Bactericidal activity against Staphylococcus epidermidis isolate 01-55 at >=1 MIC up to 8 hrs by time-kill study; assay type: functional, organism-based
# Klebsiella pneumoniae [16] = assay: Antibacterial activity against non-gentamicin-resistant Klebsiella pneumoniae clinical isolate assessed as susceptible isolates after 18 hrs by agar dilution method; assay type: functional
# [17] = test system: Staphylococcus epidermidis; assay: Antibacterial activity against gentamicin-resistant Staphylococcus epidermidis clinical isolate after 18 hrs by agar dilution method; assay type: functional
# [18] = test system: Escherichia coli BL21(DE3); assay: Phosphorylation activity of AAC(6')-APH(2'') in Escherichia coli BL21(DE3) assessed as oxidation of NADH by pyruvate kinase
# Providencia rettgeri = assay: Antibacterial activity against non-gentamicin-resistant Proteus rettgeri clinical isolate after 18 hrs by agar dilution method; assay type: functional
# Escherichia coli [19] = assay: microbe, parasite or virus in culture; settings: ATCC 25922, 18 h
# Description: Antibacterial activity against Escherichia coli ATCC 25922 after 18 hrs by agar dilution method
# [20] = test system: Haemophilus parainfluenzae; assay: Antibacterial activity against non-gentamicin-resistant Haemophilus parainfluenzae clinical isolate after 18 hrs by agar dilution method; assay type: functional
# Pseudomonas sp. [21] = assay: Antibacterial activity against non-gentamicin-resistant Pseudomonas spp. clinical isolate after 18 hrs by agar dilution method; assay type: functional
# Citrobacter freundii = assay: Antibacterial activity against gentamicin-resistant Citrobacter freundii clinical isolate after 18 hrs by agar dilution method; assay type: functional
# Pseudomonas sp. [22] = assay: Antibacterial activity against non-gentamicin-resistant Pseudomonas spp. clinical isolate assessed as susceptible isolates after 18 hrs by agar dilution method; assay type: functional
# [23] = test system: Escherichia coli BL21(DE3); assay: Ratio of Vmax to Km for AAC(6')-APH(2'') in Escherichia coli BL21(DE3) assessed as oxidation of NADH by pyruvate kinase relative to netilmicin
# [24] = test system: Acinetobacter calcoaceticus; assay: Antibacterial activity against gentamicin-resistant Acinetobacter calcoaceticus clinical isolate after 18 hrs by agar dilution method; assay type: functional
# Escherichia coli [25] = assay: Antibacterial activity against Escherichia coli ATCC 25922 at MIC up to 8 hrs by time-kill study; assay type: functional, organism-based
# Proteus mirabilis [26] = assay: Antibacterial activity against gentamicin-resistant Proteus mirabilis clinical isolate assessed as susceptible isolates after 18 hrs by agar dilution method; assay type: functional
# [27] = test system: Staphylococcus epidermidis; assay: Antibacterial activity against Staphylococcus epidermidis isolate 01-55 after 18 hrs by agar dilution method; assay type: functional
# Staphylococcus aureus [28] = assay: Antibacterial activity against Staphylococcus aureus ATCC 29213 after 18 hrs by agar dilution method; assay type: functional
compound,measurement,setting,value
CCN[C@@H]1C[C@H](N)[C@@H](O[C@@H]2OC(C(C)N)=CC[C@@H]2N)[C@H](O)[C@H]1O[C@H]1OC[C@](C)(O)[C@H](NC)[C@H]1O (stereo not given in full) [VERTILMICIN],Activity,Staphylococcus aureus [1],Dose-dependent effect
same,MIC50,Enterococcus faecalis,4 µg/mL
same,MIC90,Enterococcus faecalis,> 128 µg/mL
same,MIC50,[2],1 µg/mL
same,MIC90,[2],2 µg/mL
same,MIC,"Klebsiella pneumoniae [3]; isolate 01-21, 18 h",0.25 µg/mL
same,Vmax,[4],49.8%
same,MIC,Serratia marcescens,0.25 µg/mL
same,MIC50,Serratia marcescens,0.25 µg/mL
same,MIC90,Serratia marcescens,1 µg/mL
same,Activity,Enterobacter cloacae,26.3%
same,Activity,Klebsiella pneumoniae [5],Dose-dependent effect
same,Activity,[6],93.8%
same,MIC50,Pseudomonas aeruginosa [7],32 µg/mL
same,MIC90,Pseudomonas aeruginosa [7],> 128 µg/mL
same,Activity,Proteus mirabilis [8],98.4%
same,MIC50,Escherichia coli [9],0.5 µg/mL
same,MIC90,Escherichia coli [9],0.5 µg/mL
same,Vmax/Km,[10],4.2%
same,Activity,Pseudomonas aeruginosa [11],17.6%
same,MIC50,Proteus mirabilis [12],1 µg/mL
same,MIC90,Proteus mirabilis [12],2 µg/mL
same,Vmax,[13],6.5%
same,Activity,Staphylococcus aureus [14],83.3%
same,Activity,[15],Dose-dependent effect
same,Activity,Klebsiella pneumoniae [16],97.6%
same,MIC50,[17],2 µg/mL
same,MIC90,[17],16 µg/mL
same,Km,[18],104 µM
same,MIC50,Providencia rettgeri,2 µg/mL
same,MIC90,Providencia rettgeri,8 µg/mL
same,MIC,Escherichia coli [19],0.25 µg/mL
same,MIC50,[20],1 µg/mL
same,MIC90,[20],2 µg/mL
same,MIC50,Pseudomonas sp. [21],8 µg/mL
same,MIC90,Pseudomonas sp. [21],16 µg/mL
same,MIC50,Citrobacter freundii,8 µg/mL
same,MIC90,Citrobacter freundii,32 µg/mL
same,Activity,Pseudomonas sp. [22],72.7%
same,Vmax/Km,[23],19.9%
same,MIC50,[24],128 µg/mL
same,MIC90,[24],> 128 µg/mL
same,Activity,Escherichia coli [25],Dose-dependent effect
same,Activity,Proteus mirabilis [26],36.4%
same,MIC,"[27]; isolate 01-55, 18 h",0.25 µg/mL
same,MIC,"Staphylococcus aureus [28]; ATCC 29213, 18 h",0.125 µg/mL
CN[C@@H]1[C@@H](O)[C@@H](O[C@@H]2[C@@H](O)[C@H](O[C@@H]3OC(C(C)N)=CC[C@@H]3N)[C@@H](N)C[C@H]2N)OC[C@]1(C)O (stereo not given in full) [VERDAMICIN],MIC50,Enterococcus faecalis,128 µg/mL
same,MIC90,Enterococcus faecalis,> 128 µg/mL
same,MIC50,[2],0.5 µg/mL
same,MIC90,[2],2 µg/mL
same,MIC50,Serratia marcescens,0.25 µg/mL
same,MIC90,Serratia marcescens,0.5 µg/mL
same,Activity,Enterobacter cloacae,5.3%
same,Activity,[6],98%
same,MIC50,Pseudomonas aeruginosa [7],> 128 µg/mL
same,MIC90,Pseudomonas aeruginosa [7],> 128 µg/mL
same,Activity,Proteus mirabilis [8],100%
same,MIC50,Escherichia coli [9],0.5 µg/mL
same,MIC90,Escherichia coli [9],0.5 µg/mL
same,Vmax/Km,[10],4.5%
same,Activity,Pseudomonas aeruginosa [11],2.9%
same,MIC50,Proteus mirabilis [12],1 µg/mL
same,MIC90,Proteus mirabilis [12],2 µg/mL
same,Vmax,[13],9.6%
same,Activity,Staphylococcus aureus [14],5.6%
same,Activity,Klebsiella pneumoniae [16],98.8%
same,MIC50,[17],8 µg/mL
same,MIC90,[17],> 128 µg/mL
same,Km,[18],41.4 µM
same,MIC50,Providencia rettgeri,2 µg/mL
same,MIC90,Providencia rettgeri,8 µg/mL
same,MIC50,[20],1 µg/mL
same,MIC90,[20],2 µg/mL
same,MIC50,Pseudomonas sp. [21],2 µg/mL
same,MIC90,Pseudomonas sp. [21],8 µg/mL
same,MIC50,Citrobacter freundii,32 µg/mL
same,MIC90,Citrobacter freundii,> 128 µg/mL
same,Activity,Pseudomonas sp. [22],100%
same,MIC50,[24],> 128 µg/mL
same,MIC90,[24],> 128 µg/mL
same,Activity,Proteus mirabilis [26],18.2%
GENTAMICIN,Activity,Staphylococcus aureus [1],Dose-dependent effect
same,MIC50,Enterococcus faecalis,> 128 µg/mL
same,MIC90,Enterococcus faecalis,> 128 µg/mL
same,MIC50,[2],0.25 µg/mL
same,MIC90,[2],2 µg/mL
same,MIC,Klebsiella pneumoniae [3],0.25 µg/mL
same,MIC50,Serratia marcescens,0.25 µg/mL
same,MIC90,Serratia marcescens,0.5 µg/mL
same,Activity,Enterobacter cloacae,0%
same,Activity,Klebsiella pneumoniae [5],Dose-dependent effect
same,Activity,[6],98%
same,MIC50,Pseudomonas aeruginosa [7],> 128 µg/mL
same,MIC90,Pseudomonas aeruginosa [7],> 128 µg/mL
same,Activity,Proteus mirabilis [8],96.8%
same,MIC,Escherichia coli [9],0.25 µg/mL
same,MIC90,Escherichia coli [9],1 µg/mL
same,Activity,Pseudomonas aeruginosa [11],0%
same,MIC50,Proteus mirabilis [12],0.5 µg/mL
same,MIC90,Proteus mirabilis [12],1 µg/mL
same,Activity,Staphylococcus aureus [14],0%
same,Activity,[15],Dose-dependent effect
same,Activity,Klebsiella pneumoniae [16],100%
same,MIC50,[17],16 µg/mL
same,MIC90,[17],> 128 µg/mL
same,MIC50,Providencia rettgeri,4 µg/mL
same,MIC90,Providencia rettgeri,8 µg/mL
same,MIC50,[20],2 µg/mL
same,MIC90,[20],4 µg/mL
same,MIC50,Pseudomonas sp. [21],2 µg/mL
same,MIC90,Pseudomonas sp. [21],8 µg/mL
same,MIC50,Citrobacter freundii,64 µg/mL
same,MIC90,Citrobacter freundii,128 µg/mL
same,Activity,Pseudomonas sp. [22],81.8%
same,MIC50,[24],> 128 µg/mL
same,MIC90,[24],> 128 µg/mL
same,Activity,Escherichia coli [25],Dose-dependent effect
same,Activity,Proteus mirabilis [26],0%
same,MIC,[27],1 µg/mL
same,MIC,Staphylococcus aureus [28],0.125 µg/mL
